Patent publication US20150328191A1, “USE OF PIDOTIMOD TO TREAT PSORIASIS” (POLICHEM S.A., priority 2012, published 2015)
Peptide text beside a SMILES is read from it.

Test system: psoriatic patients (mild psoriasis)
Experiment: Evaluation of pidotimod in psoriatic patients by PASI evaluation; safety also evaluated
Format: in vivo, human
Settings: 800 mg daily oral, 12 weeks
Procedure: An evaluation of the activity of pidotimod was tested on psoriatic patients, in order to assess the efficacy in terms of improvement of the pathology by means of PASI evaluation. The safety of the treatment was also evaluated. The study was performed in 5 patients (3 males and 2 females, aged between 31-53, mean=42) with a clinical diagnosis of mild psoriasis of at least 6 months. […] The body surface area involvement at the baseline was ≦10% with a PASI value ≦10.
The study product was taken with the composition of the Example 6 at a dosage of two oral vials daily, i.e. 800 mg daily of the active ingredient, taken far from mealtimes.
During the trial, the following visits were performed: • baseline—T0 (before the product use) • intermediate visit—T6 (after 6 weeks of treatment) • final visit—T12 (after 12 weeks of treatment)
No relevant event, which may have interfered to the test results, occurred during the study period.
The efficacy of the product was expressed by mean of values of PASI evaluation, assessing the PASI at the baseline and at the intermediate visit and the final one.

O=C1CC[C@@H](C(=O)N2CSC[C@H]2C(=O)O)N1 [pidotimod, (4R)-3-(5-oxo-L-prolyl)-1,3-thiazolidine-4-carboxylic acid] (HELM PEPTIDE1{[Glp].[O=C(O)[C@@H]1CSCN1[*:1]]}$$$$V2.0)
Side effects (5 patients): no side effects were reported
Tolerability of the treatment (5 patients): very well tolerated
Student t test p for decrease of the PASI value at T12 (end of treatment) vs. T0 (baseline) (5 patients, statistically significant decrease): < 0.05
Improvement in the clinical evidences of the illness (all 5 patients): important improvement
